PubChem BioAssay AID2060600 (Molecular Pharmacology Branch, DTP, NCI, 2025)
pIC50: −log10 of the molar value.

Tested on: 996289-038-R-J1-PDC complex spheroid viability
Assay: Anticancer human tumor 996289-038-R-J1-PDC patient-derived colon adenocarcinoma cell line growth inhibition [CLK]
Conditions: for pIC50: curve of first compound; for viability, T/C: stronger effect = lower value
Summary of the method: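 Patient-derived tumor cells grown as complex spheroids with HUVEC endothelial cells and mesenchymal stem cells, treated with drug combinations. Concentrations descend in half-log steps from near clinical Cmax, or from 10 microM if Cmax unknown.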

[1] = second compound 0.0316 µM, first compound 0.0316 µM
[2] = second compound 0.0316 µM, first compound 0.1 µM
[3] = second compound 0.0316 µM, first compound 0.316 µM
[4] = second compound 0.0316 µM, first compound 1 µM
[5] = second compound 0.1 µM, first compound 0.0316 µM
[6] = second compound 0.1 µM, first compound 0.1 µM
[7] = second compound 0.1 µM, first compound 0.316 µM
[8] = second compound 0.1 µM, first compound 1 µM
[9] = second compound 0.316 µM, first compound 0.0316 µM
[10] = second compound 0.316 µM, first compound 0.1 µM
[11] = second compound 0.316 µM, first compound 0.316 µM
[12] = second compound 0.316 µM, first compound 1 µM
[13] = second compound 1 µM, first compound 0.0316 µM
[14] = second compound 1 µM, first compound 0.1 µM
[15] = second compound 1 µM, first compound 0.316 µM
[16] = second compound 1 µM, first compound 1 µM
[17] = second compound 3.16 µM, first compound 0.0316 µM
[18] = second compound 3.16 µM, first compound 0.1 µM
[19] = second compound 3.16 µM, first compound 0.316 µM
[20] = second compound 3.16 µM, first compound 1 µM
[21] = second compound 10 µM, first compound 0.0316 µM
[22] = second compound 10 µM, first compound 0.1 µM
[23] = second compound 10 µM, first compound 0.316 µM
[24] = second compound 10 µM, first compound 1 µM
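Further: spheroids exposed to the agents for 7 days before readout.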

CCN1CCN(Cc2ccc(Nc3ncc(F)c(-c4cc(F)c5nc(C)n(C(C)C)c5c4)n3)nc2)CC1 + CN1CCN(c2cc(C(=O)Nc3cc4cc(-c5cnn(C)c5)ccc4cn3)ccn2)CC1
pIC50 (second compound 0.0316 µM): < 6.00 | pIC50 (second compound 0.1 µM): < 6.00 | pIC50 (second compound 0.316 µM): 6.12 | pIC50 (second compound 1 µM): > 8.50 | pIC50 (second compound 3.16 µM): > 8.50 | pIC50 (second compound 10 µM): > 8.50 | viability, T/C (second compound 0.0316 µM, first compound 0.00316 µM): 95.8% | viability, T/C (second compound 0.0316 µM, first compound 0.01 µM): 97.3% | viability, T/C [1]: 82.6% | viability, T/C [2]: 82.5% | viability, T/C [3]: 79.7% | viability, T/C [4]: 76.8% | viability, T/C (second compound 0.1 µM, first compound 0.00316 µM): 101% | viability, T/C (second compound 0.1 µM, first compound 0.01 µM): 85.7% | viability, T/C [5]: 86.4% | viability, T/C [6]: 81.4% | viability, T/C [7]: 68.8% | viability, T/C [8]: 71% | viability, T/C (second compound 0.316 µM, first compound 0.00316 µM): 64.8% | viability, T/C (second compound 0.316 µM, first compound 0.01 µM): 62.5% | viability, T/C [9]: 58.7% | viability, T/C [10]: 53.4% | viability, T/C [11]: 51.3% | viability, T/C [12]: 50.8% | viability, T/C (second compound 1 µM, first compound 0.00316 µM): 6.12% | viability, T/C (second compound 1 µM, first compound 0.01 µM): 6.14% | viability, T/C [13]: 7.95% | viability, T/C [14]: 8.35% | viability, T/C [15]: 10.1% | viability, T/C [16]: 2.91% | viability, T/C (second compound 3.16 µM, first compound 0.00316 µM): 1.14% | viability, T/C (second compound 3.16 µM, first compound 0.01 µM): 1.05% | viability, T/C [17]: 0.74% | viability, T/C [18]: 1.08% | viability, T/C [19]: 1.2% | viability, T/C [20]: 2.28% | viability, T/C (second compound 10 µM, first compound 0.00316 µM): 0.58% | viability, T/C (second compound 10 µM, first compound 0.01 µM): 0.55% | viability, T/C [21]: 0.57% | viability, T/C [22]: 0.88% | viability, T/C [23]: 0.37% | viability, T/C [24]: 0.53%

Nc1ccccc1NC(=O)c1ccc(CNC(=O)OCc2cccnc2)cc1 + CN1CCN(c2cc(C(=O)Nc3cc4cc(-c5cnn(C)c5)ccc4cn3)ccn2)CC1
pIC50 (second compound 0.0316 µM): 5.20 | pIC50 (second compound 0.1 µM): 5.30 | pIC50 (second compound 0.316 µM): 5.63 | pIC50 (second compound 1 µM): > 7.50 | pIC50 (second compound 3.16 µM): > 7.50 | pIC50 (second compound 10 µM): > 7.50 | viability, T/C [1]: 99.7% | viability, T/C [2]: 103% | viability, T/C [3]: 91.4% | viability, T/C [4]: 81.7% | viability, T/C (second compound 0.0316 µM, first compound 3.16 µM): 61.8% | viability, T/C (second compound 0.0316 µM, first compound 10 µM): 42.3% | viability, T/C [5]: 110% | viability, T/C [6]: 88.1% | viability, T/C [7]: 83.7% | viability, T/C [8]: 71.1% | viability, T/C (second compound 0.1 µM, first compound 3.16 µM): 60% | viability, T/C (second compound 0.1 µM, first compound 10 µM): 38.3% | viability, T/C [9]: 70.1% | viability, T/C [10]: 64.8% | viability, T/C [11]: 64.3% | viability, T/C [12]: 60.4% | viability, T/C (second compound 0.316 µM, first compound 3.16 µM): 46.4% | viability, T/C (second compound 0.316 µM, first compound 10 µM): 20.9% | viability, T/C [13]: 8.94% | viability, T/C [14]: 5.54% | viability, T/C [15]: 6.13% | viability, T/C [16]: 3.31% | viability, T/C (second compound 1 µM, first compound 3.16 µM): 1.46% | viability, T/C (second compound 1 µM, first compound 10 µM): 1.42% | viability, T/C [17]: 0.74% | viability, T/C [18]: 0.78% | viability, T/C [19]: 0.83% | viability, T/C [20]: 2.18% | viability, T/C (second compound 3.16 µM, first compound 3.16 µM): 1.99% | viability, T/C (second compound 3.16 µM, first compound 10 µM): 1.71% | viability, T/C [21]: 0.41% | viability, T/C [22]: 1.24% | viability, T/C [23]: 1.06% | viability, T/C [24]: 0.6% | viability, T/C (second compound 10 µM, first compound 3.16 µM): 0.7% | viability, T/C (second compound 10 µM, first compound 10 µM): 1.88%
